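Step 1: Grow cells in 96-well plates. Step 2: Expose to compound for 48 hours at 5 concentrations. Step 3: Interpolate endpoints linearly; if unreached, use highest concentration. The concentration for 50% growth inhibition is given as GI50.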 Active and inactive are the calls of the source. Rule as the data show it: active = GI50 up to about 1.1 µM and inactive = higher.
What was measured:
Experiment in all cases: NCI tumour cell line growth inhibition, 48 h
SW-620 = test system: SW-620
M14 = test system: M14
Malme-3M = test system: Malme-3M
COLO 205 = test system: COLO 205
T47D = test system: T47D
U-251 = test system: U-251
OVCAR-3 = test system: OVCAR-3
PC-3 = test system: PC-3
SNB-19 = test system: SNB-19
HOP-92 = test system: HOP-92
HOP-62 = test system: HOP-62
HL-60 = test system: HL-60
HCT-15 = test system: HCT-15
SK-MEL-2 = test system: SK-MEL-2
786-0 = test system: 786-0
NCI/ADR-RES = test system: NCI/ADR-RES
MOLT-4 = test system: MOLT-4
SK-MEL-5 = test system: SK-MEL-5
MDA-MB-231 = test system: MDA-MB-231
RXF 393 = test system: RXF 393

Structure (SMILES)	GI50 (SW-620)	GI50 (M14)	GI50 (Malme-3M)	GI50 (COLO 205)	GI50 (T47D)	GI50 (U-251)	GI50 (OVCAR-3)	GI50 (PC-3)	GI50 (SNB-19)	GI50 (HOP-92)	GI50 (HOP-62)	GI50 (HL-60)	GI50 (HCT-15) [µM]	GI50 (SK-MEL-2)	GI50 (786-0)	GI50 (NCI/ADR-RES)	GI50 (MOLT-4)	GI50 (SK-MEL-5)	GI50 (MDA-MB-231)	GI50 (RXF 393)
O=[N+]([O-])c1ccc(Cl)cc1-n1nc(-c2ccccc2)cc1-c1ccccc1	> 100 µM (inactive)	> 100 µM (inactive)	> 100 µM (inactive)	> 100 µM (inactive)	22.3 µM (inactive)	> 100 µM (inactive)	> 100 µM (inactive)	> 100 µM (inactive)	> 100 µM (inactive)	> 100 µM (inactive)	> 10 µM (inactive)	> 100 µM (inactive)	> 100	> 100 µM (inactive)	> 100 µM (inactive)	> 100 µM (inactive)	> 100 µM (inactive)	> 100 µM (inactive)	> 100 µM (inactive)	–
O=C(O)c1ccccc1C(=O)c1ccc2c(c1)Cc1ccccc1-2	> 100 µM (inactive)	> 100 µM (inactive)	80.9 µM (inactive)	57 µM (inactive)	80.4 µM (inactive)	54 µM (inactive)	> 100 µM (inactive)	66.4 µM (inactive)	> 100 µM (inactive)	> 100 µM (inactive)	> 100 µM (inactive)	–	57.5	> 100 µM (inactive)	> 100 µM (inactive)	99.1 µM (inactive)	> 100 µM (inactive)	> 100 µM (inactive)	> 100 µM (inactive)	> 100 µM (inactive)
COc1ccc(C2C(=O)c3c(OC)cc(OC)cc3OC2c2cccnc2)cc1 (stereo not drawn)	> 100 µM (inactive)	> 100 µM (inactive)	67.9 µM (inactive)	70.3 µM (inactive)	> 100 µM (inactive)	–	> 100 µM (inactive)	> 100 µM (inactive)	> 100 µM (inactive)	–	> 100 µM (inactive)	–	> 100	> 100 µM (inactive)	> 100 µM (inactive)	> 100 µM (inactive)	46 µM (inactive)	> 100 µM (inactive)	> 100 µM (inactive)	> 100 µM (inactive)
CN(C(=S)Cc1ccc(Cl)c(Cl)c1)C1CCCC[C@@H]1N1CCCC1 (stereo partly drawn)	20.1 µM (inactive)	18.2 µM (inactive)	–	–	38 µM (inactive)	29.9 µM (inactive)	26.1 µM (inactive)	31.4 µM (inactive)	> 100 µM (inactive)	–	54.2 µM (inactive)	28.5 µM (inactive)	58.1	31.6 µM (inactive)	21.9 µM (inactive)	85.9 µM (inactive)	51.8 µM (inactive)	18.5 µM (inactive)	34.4 µM (inactive)	–
Cc1cc2c(cc1Cl)SC(NNc1ccc([N+](=O)[O-])cc1)=NS2(=O)=O	> 10 µM (inactive)	> 10 µM (inactive)	> 10 µM (inactive)	> 10 µM (inactive)	> 10 µM (inactive)	> 10 µM (inactive)	> 10 µM (inactive)	> 10 µM (inactive)	> 10 µM (inactive)	–	> 10 µM (inactive)	> 10 µM (inactive)	> 10	> 10 µM (inactive)	> 10 µM (inactive)	> 10 µM (inactive)	> 10 µM (inactive)	> 10 µM (inactive)	> 10 µM (inactive)	> 10 µM (inactive)
Cc1ccc(CC2(OCCN(C)C)CCC(C(C)(C)C)CC2)cc1 (stereo not drawn)	2.45 µM (inactive)	1.87 µM (inactive)	1.99 µM (inactive)	1.48 µM (inactive)	2.68 µM (inactive)	2.41 µM (inactive)	11.9 µM (inactive)	3.89 µM (inactive)	5.28 µM (inactive)	–	2.55 µM (inactive)	2.02 µM (inactive)	4.63	2.11 µM (inactive)	1.88 µM (inactive)	7.98 µM (inactive)	2.04 µM (inactive)	1.58 µM (inactive)	5.56 µM (inactive)	–
Clc1cc2nnn(C3CCCO3)c2cc1Cl (stereo not drawn)	–	> 100 µM (inactive)	> 100 µM (inactive)	> 100 µM (inactive)	> 100 µM (inactive)	> 100 µM (inactive)	> 100 µM (inactive)	> 100 µM (inactive)	–	–	> 100 µM (inactive)	> 100 µM (inactive)	> 100	> 100 µM (inactive)	> 100 µM (inactive)	> 100 µM (inactive)	83.6 µM (inactive)	75.3 µM (inactive)	> 100 µM (inactive)	> 100 µM (inactive)
C/C(=N\c1ccc(Cl)cc1)c1ccncc1	2.72 µM (inactive)	> 100 µM (inactive)	> 100 µM (inactive)	5.64 µM (inactive)	0.809 µM (active)	> 100 µM (inactive)	41 µM (inactive)	> 100 µM (inactive)	> 100 µM (inactive)	> 100 µM (inactive)	> 100 µM (inactive)	–	0.36	> 100 µM (inactive)	> 100 µM (inactive)	> 100 µM (inactive)	3.4 µM (inactive)	2.13 µM (inactive)	> 100 µM (inactive)	> 100 µM (inactive)
O=c1oc2ccc(Cl)cc2cc1-c1cn2ccccc2n1	85.5 µM (inactive)	> 66.7 µM (inactive)	3.46 µM (inactive)	> 100 µM (inactive)	> 61.2 µM (inactive)	3.93 µM (inactive)	33.7 µM (inactive)	> 72.9 µM (inactive)	–	21.9 µM (inactive)	3.67 µM (inactive)	–	> 100	> 96.6 µM (inactive)	3.24 µM (inactive)	17.9 µM (inactive)	> 100 µM (inactive)	> 100 µM (inactive)	8.97 µM (inactive)	13.7 µM (inactive)
Nc1nc2c(c(=O)[nH]1)C(c1ccccc1)CC(=O)N2 (stereo not drawn)	> 100 µM (inactive)	> 100 µM (inactive)	> 100 µM (inactive)	> 100 µM (inactive)	> 100 µM (inactive)	> 100 µM (inactive)	> 100 µM (inactive)	> 100 µM (inactive)	> 100 µM (inactive)	–	> 100 µM (inactive)	–	> 100	> 100 µM (inactive)	> 100 µM (inactive)	> 100 µM (inactive)	> 100 µM (inactive)	> 100 µM (inactive)	> 100 µM (inactive)	–
OC1c2ccccc2CCC1CN1CCN(CCOC(c2ccc(F)cc2)c2ccc(F)cc2)CC1 (stereo not drawn)	16.2 µM (inactive)	10.9 µM (inactive)	15.2 µM (inactive)	1.72 µM (inactive)	12.5 µM (inactive)	13.8 µM (inactive)	17.4 µM (inactive)	16.3 µM (inactive)	31.6 µM (inactive)	9.16 µM (inactive)	20.5 µM (inactive)	–	6.05	16.6 µM (inactive)	11.7 µM (inactive)	11.2 µM (inactive)	8.83 µM (inactive)	4.79 µM (inactive)	13.8 µM (inactive)	6.18 µM (inactive)
CC(C)(C)OC(=O)c1cnc(Cl)cn1	55.8 µM (inactive)	29.4 µM (inactive)	51.6 µM (inactive)	71.3 µM (inactive)	35.2 µM (inactive)	33.8 µM (inactive)	–	64.7 µM (inactive)	95.3 µM (inactive)	3.12 µM (inactive)	> 100 µM (inactive)	–	11.7	29.9 µM (inactive)	> 100 µM (inactive)	50 µM (inactive)	27.3 µM (inactive)	47.3 µM (inactive)	46.1 µM (inactive)	–
NCCCNOCCCN	> 100 µM (inactive)	> 100 µM (inactive)	> 100 µM (inactive)	> 100 µM (inactive)	> 100 µM (inactive)	43.7 µM (inactive)	> 100 µM (inactive)	> 100 µM (inactive)	> 100 µM (inactive)	37.8 µM (inactive)	> 100 µM (inactive)	–	> 100	> 100 µM (inactive)	> 100 µM (inactive)	> 100 µM (inactive)	> 100 µM (inactive)	> 100 µM (inactive)	> 100 µM (inactive)	> 100 µM (inactive)
O=C(O)C1(C(=O)O)CC1(C(=O)O)C(=O)O	> 100 µM (inactive)	> 100 µM (inactive)	> 100 µM (inactive)	> 100 µM (inactive)	> 100 µM (inactive)	> 100 µM (inactive)	–	> 100 µM (inactive)	> 100 µM (inactive)	–	> 100 µM (inactive)	> 100 µM (inactive)	> 100	> 100 µM (inactive)	> 100 µM (inactive)	> 100 µM (inactive)	> 100 µM (inactive)	> 100 µM (inactive)	> 100 µM (inactive)	32.6 µM (inactive)
Cc1ccc(C(=O)Oc2ccccc2)cc1/N=N/N(C)C	> 100 µM (inactive)	> 100 µM (inactive)	> 100 µM (inactive)	> 100 µM (inactive)	71.8 µM (inactive)	> 100 µM (inactive)	43.4 µM (inactive)	> 100 µM (inactive)	> 92.3 µM (inactive)	> 100 µM (inactive)	> 100 µM (inactive)	78 µM (inactive)	> 70.3	> 100 µM (inactive)	> 100 µM (inactive)	> 100 µM (inactive)	> 100 µM (inactive)	> 100 µM (inactive)	> 100 µM (inactive)	–
N/N=C(\N)SCCCCCCCCCCS/C(N)=N/N	17.7 µM (inactive)	29.4 µM (inactive)	12 µM (inactive)	14.6 µM (inactive)	5.57 µM (inactive)	17.6 µM (inactive)	19.7 µM (inactive)	34.6 µM (inactive)	40.7 µM (inactive)	–	40.5 µM (inactive)	17.3 µM (inactive)	14.3	16.7 µM (inactive)	31.5 µM (inactive)	21.1 µM (inactive)	–	21 µM (inactive)	20.4 µM (inactive)	–

From ChEMBL document CHEMBL1201862, “PubChem BioAssay data set” (2004)
